Biological target: T1, Gag-Pol polyprotein [588-1027]/[588-1147] (Human immunodeficiency virus 1, UniProt P04585)
T1 construct: 588-1027; 588-1147
Assay: HIV-1 RT Assay
Details: pH 8.2
Source text: The IC50 of reverse transcriptase is the concentration that inhibits 50% of recombinant HIV-1 RT RNA-directed DNA polymerase activity in vitro.

O=C1Nc2ccc(Cl)cc2C(C#Cc2cc([N+](=O)[O-])ccn2)(C2CC2)N1 (stereo unspecified) [6-chloro-4-cyclopropyl-4-[2-(4-nitropyridin-2-yl)ethynyl]-1,2,3,4-tetrahydroquinazolin-2-one]
IC50: > 10 µM

From BindingDB's records for doi:10.1021/jm00041a023 (Merck Research Laboratories, 1994)
